We go through 42 compounds from BindingDB's records for doi:10.1021/jm400944k (China Pharmaceutical University, 2013).

This assay addresses T1, Nuclear factor erythroid 2-related factor 2 (Homo sapiens, UniProt Q16236).
T1 sequence (Q16236 whole entry): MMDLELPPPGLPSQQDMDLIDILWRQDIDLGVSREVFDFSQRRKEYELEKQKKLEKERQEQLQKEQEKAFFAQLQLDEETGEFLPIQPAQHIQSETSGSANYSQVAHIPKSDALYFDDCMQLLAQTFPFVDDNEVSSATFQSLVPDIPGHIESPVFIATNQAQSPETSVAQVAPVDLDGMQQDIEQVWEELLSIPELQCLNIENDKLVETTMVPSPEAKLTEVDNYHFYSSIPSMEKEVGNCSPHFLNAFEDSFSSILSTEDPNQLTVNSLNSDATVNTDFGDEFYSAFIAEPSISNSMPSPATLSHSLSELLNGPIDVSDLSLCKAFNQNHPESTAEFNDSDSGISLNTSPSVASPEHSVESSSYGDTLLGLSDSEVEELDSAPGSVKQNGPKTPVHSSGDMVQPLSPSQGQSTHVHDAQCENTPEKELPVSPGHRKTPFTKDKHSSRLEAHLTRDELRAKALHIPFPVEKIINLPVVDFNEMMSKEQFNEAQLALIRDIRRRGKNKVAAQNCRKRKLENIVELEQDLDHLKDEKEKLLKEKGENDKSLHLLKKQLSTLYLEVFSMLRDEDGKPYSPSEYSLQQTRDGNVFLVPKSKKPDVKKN
Put plainly: Induction of Nrf2-mediated ARE activity in human HepG2-ARE-C8 cells after 12 hrs by luciferase reporter gene assay. Background: Reporter assays use an easily measured gene product as a stand-in for the process of interest.

pEC50: −log10 of the molar value. Where only a bound is given, the exact number is not on record here.

As a reminder, the pEC50 is the negative decadic logarithm of the EC50, by convention in mol/L. Read a low pEC50 as a high EC50. Regarding `COc1ccc(C(=O)/C=C2\NCC3c4ccccc4CCN3C2=O)cc1OC` (configuration not stated), the pEC50 is 4.03. In the case of `COc1ccc2c(c1)C1CN/C(=C\C(=O)c3ccccc3F)C(=O)N1CC2` (configuration not stated) it was under 4.00. The compound `O=C(/C=C1\NCC2c3ccccc3CCN2C1=O)c1ccccc1Cl` (configuration not stated) had a pEC50 of under 4.00. The value for `COc1cc2c(cc1OC)C1CN/C(=C\C(=O)c3cccc(Cl)c3)C(=O)N1CC2` (configuration not stated) was under 4.00; that for `COc1cc2c(cc1OC)C1CN/C(=C\C(=O)c3cccc([N+](=O)[O-])c3)C(=O)N1CC2` (configuration not stated) was 4.30. In the case of `O=C(/C=C1\NCC2c3ccccc3CCN2C1=O)c1ccc(Cl)cc1` (configuration not stated) it was under 4.00. `COc1cc2c(cc1OC)C1CN/C(=C\C(=O)c3cccc(F)c3)C(=O)N1CC2` (configuration not stated) showed a pEC50 of 4.04. As for `O=C(/C=C1\NCC2c3ccccc3CCN2C1=O)c1cc(F)cc(F)c1` (configuration not stated), the pEC50 was 4.23. In the case of `COc1cccc(C(=O)/C=C2\NCC3c4cc(OC)ccc4CCN3C2=O)c1` (configuration not stated) it was under 4.00. The value for `O=C(/C=C1\NCC2c3ccccc3CCN2C1=O)c1ccccc1` (configuration not stated) was under 4.00; that for `O=C(/C=C1\NCC2c3ccccc3CCN2C1=O)c1cccc(Cl)c1` (configuration not stated) was under 4.00.

As for `O=C(/C=C1\NCC2c3ccccc3CCN2C1=O)c1cccc(Br)c1` (configuration not stated), the pEC50 was 4.23. The value for `O=C(/C=C1\NCC2c3ccccc3CCN2C1=O)c1cccc(C(F)(F)F)c1` (configuration not stated) was under 4.00; that for `COc1cccc(C(=O)/C=C2\NCC3c4ccccc4CCN3C2=O)c1` (configuration not stated) was under 4.00; that for `O=C(/C=C1\NCC2c3ccccc3CCN2C1=O)c1cccc(F)c1` (configuration not stated) was under 4.00. The value for `COc1cccc(C(=O)/C=C2\NCC3c4cc(OC)c(OC)cc4CCN3C2=O)c1` (configuration not stated) was under 4.00; that for `O=C(/C=C1\NCC2c3ccccc3CCN2C1=O)c1ccccc1[N+](=O)[O-]` (configuration not stated) was under 4.00.

For `COc1ccc2c(c1)CCN1C(=O)/C(=C/C(=O)c3ccccc3F)NCC21` (configuration not stated), the pEC50 is under 4.00. In the case of `O=C(/C=C1\NCC2c3ccccc3CCN2C1=O)c1ccc([N+](=O)[O-])cc1` (configuration not stated) it was under 4.00. In the case of `COc1cc2c(cc1OC)C1CN/C(=C\C(=O)c3ccc(F)cc3)C(=O)N1CC2` (configuration not stated) it was 4.09; in that of `O=C(/C=C1\NCC2c3ccccc3CCN2C1=O)c1ccccc1F` (configuration not stated), under 4.00. The value for `COc1cc2c(cc1OC)C1CN/C(=C\C(=O)c3ccccc3)C(=O)N1CC2` (configuration not stated) was under 4.00; that for `COc1cccc2c1CCN1C(=O)/C(=C/C(=O)c3ccccc3F)NCC21` (configuration not stated) was under 4.00; that for `Cc1ccc(C(=O)/C=C2\NCC3c4ccccc4CCN3C2=O)cc1` (configuration not stated) was under 4.00. `O=C(/C=C1\NCC2c3ccccc3CCN2C1=O)c1ccc(F)c(F)c1` (configuration not stated) showed a pEC50 of under 4.00. `COc1ccccc1C(=O)/C=C1\NCC2c3ccccc3CCN2C1=O` (configuration not stated) had a pEC50 of under 4.00. The value for `COc1ccc2c(c1)C1CN/C(=C\C(=O)c3cccc(Cl)c3)C(=O)N1CC2` (configuration not stated) was under 4.00; that for `COc1ccc2c(c1)CCN1C(=O)/C(=C/C(=O)c3ccccc3)NCC21` (configuration not stated) was under 4.00. The value for `COc1ccc2c(c1)C1CN/C(=C\C(=O)c3cccc([N+](=O)[O-])c3)C(=O)N1CC2` (configuration not stated) was under 4.00; that for `COc1ccc2c(c1)C1CN/C(=C\C(=O)c3ccc(F)cc3)C(=O)N1CC2` (configuration not stated) was 4.06; that for `CC(C)(C)c1cc(O)ccc1O` [CHEBI:78886] was 4.04. In the case of `COc1ccc2c(c1)CCN1C(=O)/C(=C/C(=O)c3cccc(F)c3)NCC21` (configuration not stated) it was under 4.00; in that of `O=C(/C=C1\NCC2c3ccccc3CCN2C1=O)c1cccc([N+](=O)[O-])c1` (configuration not stated), under 4.00; in that of `O=C(/C=C1\NCC2c3ccccc3CCN2C1=O)c1ccc(Cl)cc1Cl` (configuration not stated), under 4.00.

For the compound `COc1ccc2c(c1)C1CN/C(=C\C(=O)c3ccccc3)C(=O)N1CC2` (configuration not stated), the pEC50 is under 4.00. `COc1cc2c(cc1OC)C1CN/C(=C\C(=O)c3ccccc3F)C(=O)N1CC2` (configuration not stated) had a pEC50 of 4.12. The value for `O=C(/C=C1\NCC2c3ccccc3CCN2C1=O)c1ccc(-c2ccccc2)cc1` (configuration not stated) was under 4.00. In the case of `COc1cccc2c1CCN1C(=O)/C(=C/C(=O)c3ccccc3)NCC21` (configuration not stated) it was 4.23.

As for `O=C(/C=C1\NCC2c3ccccc3CCN2C1=O)c1ccc(F)cc1` (configuration not stated), the pEC50 was under 4.00. In the case of `COc1ccc(C(=O)/C=C2\NCC3c4ccccc4CCN3C2=O)cc1` (configuration not stated) it was under 4.00; in that of `COc1ccc2c(c1)C1CN/C(=C\C(=O)c3cccc(F)c3)C(=O)N1CC2` (configuration not stated), under 4.00.

The compound `COc1cccc2c1CCN1C(=O)/C(=C/C(=O)c3cccc(F)c3)NCC21` (configuration not stated) had a pEC50 of under 4.00.
